# According to the Kinase Knowledgebase extract (Sharma et al. 2016):
# Target: ROCK2 (human) (UniProt O75116)
# Test: Assessment of ROCK2 Kinase Activity
# ROCK2 (human), sequence (O75116 whole entry, looked up): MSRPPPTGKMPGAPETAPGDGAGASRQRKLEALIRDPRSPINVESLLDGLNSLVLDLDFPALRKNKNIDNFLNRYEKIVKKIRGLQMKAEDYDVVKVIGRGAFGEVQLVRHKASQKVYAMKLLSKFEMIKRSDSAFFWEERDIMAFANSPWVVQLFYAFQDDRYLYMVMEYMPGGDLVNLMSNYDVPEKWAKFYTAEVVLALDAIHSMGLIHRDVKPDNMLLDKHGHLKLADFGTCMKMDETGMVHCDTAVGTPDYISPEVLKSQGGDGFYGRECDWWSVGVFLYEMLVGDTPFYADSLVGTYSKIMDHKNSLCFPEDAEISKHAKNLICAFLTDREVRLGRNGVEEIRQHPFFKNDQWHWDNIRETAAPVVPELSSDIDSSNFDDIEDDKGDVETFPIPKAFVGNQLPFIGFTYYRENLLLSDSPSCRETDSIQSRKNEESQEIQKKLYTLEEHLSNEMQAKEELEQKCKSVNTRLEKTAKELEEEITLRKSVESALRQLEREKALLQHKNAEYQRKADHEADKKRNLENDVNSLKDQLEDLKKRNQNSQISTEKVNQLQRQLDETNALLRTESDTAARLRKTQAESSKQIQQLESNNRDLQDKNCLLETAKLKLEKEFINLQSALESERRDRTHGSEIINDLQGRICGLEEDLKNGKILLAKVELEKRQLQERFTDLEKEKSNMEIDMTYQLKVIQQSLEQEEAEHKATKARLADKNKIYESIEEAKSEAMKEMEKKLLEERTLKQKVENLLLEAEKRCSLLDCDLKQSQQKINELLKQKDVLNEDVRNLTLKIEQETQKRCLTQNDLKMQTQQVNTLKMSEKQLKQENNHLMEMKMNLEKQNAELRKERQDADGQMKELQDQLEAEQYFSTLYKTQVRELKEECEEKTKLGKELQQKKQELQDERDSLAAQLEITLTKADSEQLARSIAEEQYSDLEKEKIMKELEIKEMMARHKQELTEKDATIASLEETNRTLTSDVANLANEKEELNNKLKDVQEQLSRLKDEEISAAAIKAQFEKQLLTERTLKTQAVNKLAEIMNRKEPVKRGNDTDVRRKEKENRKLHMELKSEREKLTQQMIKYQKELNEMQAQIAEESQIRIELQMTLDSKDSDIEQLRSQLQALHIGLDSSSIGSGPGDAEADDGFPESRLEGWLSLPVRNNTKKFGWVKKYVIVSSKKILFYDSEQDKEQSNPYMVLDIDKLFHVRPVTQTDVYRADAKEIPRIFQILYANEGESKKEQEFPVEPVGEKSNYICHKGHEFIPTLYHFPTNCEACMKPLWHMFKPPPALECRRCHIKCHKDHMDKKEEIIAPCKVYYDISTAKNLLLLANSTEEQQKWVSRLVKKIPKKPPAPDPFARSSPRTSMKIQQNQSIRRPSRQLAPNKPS
row,Structure (SMILES),IC50
1,CCCNC(=O)CN1CCC(Oc2cc3cc[nH]c(=O)c3cc2Cl)CC1,≤ 1000 nM
2,NCC(=O)N1CCC(Oc2ccc3c(=O)[nH]ccc3c2)CC1,≤ 1000 nM
3,O=c1[nH]ccc2cc(OC3CCCNCC3)c(Cl)cc12 (configuration not stated),≤ 1000 nM
4,N[C@@H](Cc1ccc(Cl)cc1)C(=O)N1CCC(Oc2cc3cc[nH]c(=O)c3cc2Cl)CC1,≤ 1000 nM
5,CN(C)CC(=O)N1CCC(Oc2cc3cc[nH]c(=O)c3cc2Cl)CC1,≤ 1000 nM
6,O=c1[nH]ccc2cc(O[C@@H]3CCN(Cc4ccccc4)C3)c(Cl)cc12,≤ 1000 nM
7,C[C@@H](N)C(=O)N1CCC(Oc2cc3cc[nH]c(=O)c3cc2Cl)CC1,≤ 1000 nM

# Other lines, results leading:
row,IC50,Structure (SMILES)
1,≤ 1000 nM,Cc1cc2c(=O)[nH]ccc2cc1O[C@H]1CCNC1
2,≤ 1000 nM,Cc1cc2c(=O)[nH]ccc2cc1OC[C@@H]1CCNC1
3,≤ 1000 nM,Cc1cc2c(=O)[nH]ccc2cc1OC1CCCNCC1 (configuration not stated)
4,≤ 1000 nM,O=C([C@@H]1CCCN1)N1CCC(Oc2cc3cc[nH]c(=O)c3cc2Cl)CC1
5,≤ 1000 nM,O=c1[nH]ccc2cc(OC3CNC3)c(Cl)cc12
